We go through 2 compounds from article PMC6283615, “Anilinoquinoline based inhibitors of trypanosomatid proliferation” (PLoS Neglected Tropical Diseases, 2018).

The nature of data set [1]: Rat hepatocyte intrinsic clearance. Format: in vitro ADME. The settings on record: hepatocytes.
Data set [2] deals with T. cruzi amastigote (Tulahuen strain expressing β-galactosidase). The data set is described as follows: Intracellular T. cruzi assay in 3T3 cells (beta-galactosidase, 96 h). Format: cell-based, Trypanosoma cruzi. Conditions: for EC50: Trypanosoma cruzi, TULAHUEN, NIH3T3, 96 h, read-out: T. cruzi amastigote EC50. The gist of the method: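 3T3 cells in phenol-red-free DMEM with 2% FBS were infected with Tulahuen β-galactosidase trypomastigotes, 5×10^4 per well, and exposed to compounds from 50 μM in 1:2 serial dilutions, in triplicate. After 96 h at 37°C, 5% CO2, 500 μM CPRG in PBS with 0.5% NP40 was added for 4 h; absorbance was read at 590–595 nm.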

For data set [3], the system named is T. vivax STIB 719 / ILRAD 560. In words: Ex vivo drug sensitivity assay for T. vivax (48 h). Format: cell-based. Conditions: Trypanosoma vivax, STIB719, 48 h. How it is done:
Ex vivo drug sensitivity assay for T. vivax (48 h): Compounds were tested ex vivo against the STIB 719 / ILRAD 560 T. vivax (drug sensitive) strain which originated from the Y486 strain, isolated from a naturally infected bovine in 1976 in Zaria, Nigeria. Compounds were assayed in at least three separate, independent experiments and an 11-point dilution curve was used to determine the EC50 values. Bloodstream form trypanosomes were harvested from a highly parasitaemic mouse (via cardiac puncture) and were incubated with test compounds for 45 h at 37°C in a humidified atmosphere containing 5% CO2, supported in HMI-9 medium containing 20% bovine serum. Thereafter, Resazurin dye was added to monitor trypanosome viability as described in the preceding section.

Data set [4] deals with T. brucei brucei CA427. The data set is described as follows: Murine model of acute HAT (T. b. brucei infected mice). Format: in vivo. How it is done:
Bloodstream form (BSF) T. brucei brucei CA427 parasites were maintained at densities below 1×10^6 cells/mL in HMI-9 media supplemented with 10% fetal bovine serum (Atlanta Biologicals), 10% SERUM PLUS (Sigma), and 1% Antibiotic-Antimycotic Solution (Corning cellgro) at 37°C, 5% CO2 [18]. Parasites were centrifuged at 5000 xg for 3 min at room temperature and resuspended in cold 1xPBS containing 1% glucose to yield a solution of 2.5×10^6 cells/mL. Correct cell density following resuspension was confirmed using a Z2 Coulter Counter (Beckman). Parasite viability was observed by motility with a Neubauer Bright-line hemocytometer. Cells were kept on ice until infection.
Compound 14 –on day 0, female Swiss-Webster mice (8–10 weeks old, 20–25 g, n = 4 per group) (Harlan) were infected i.p. with 2.5×10^5 trypanosomes by injecting 100 μL of resuspension using 26G needles. Day 1 to 3 post-infection, mice received a single i.p. dose of either drug vehicle (dimethylsulfoxide, 3.4 mL/kg) (Fisher Scientific) or drug (14, 25 mg/kg). Parasitemia was determined on days 2 and 3 post-infection by collecting 3 μL of blood from the tail vein.
Day 1 to 3 post-infection, mice received a single p.o. dose of either drug vehicle (10% NMP and 90% PEG, 10 mL/kg) (Fisher Scientific) or drug (22, 60 mg/kg). From days 4 to 6, the dose was increased to 70 mg/kg for the mice in the treatment group. Parasitemia was determined on days 3 to 6 post-infection by collecting 3 μL of blood from the tail vein.
Blood samples were mixed with 21 μL of RBC Lysis Solution (Qiagen) and incubated at room temperature for 15–45 min prior to observing for parasites by hemocytometer. Humane euthanasia by CO2 overdose followed by incision to form a bilateral pneumothorax was conducted on mice at study termination. All animal experimental protocols were approved and performed in accordance with the guidelines of the Institutional Animal Care and Use Committee (IACUC) at the University of Georgia.

Data set [5] relates to T. congolense IL3000. In words: In vitro drug sensitivity assay for T. congolense (72 h). The format is cell-based. Conditions: Trypanosoma congolense, IL3000 strain. On the procedure:
In vitro drug sensitivity assay for T. congolense (72 h): Compounds were tested in vitro for efficacy against the IL3000 T. congolense (drug sensitive) strain which was originally derived from the Trans Mara I strain, isolated from a bovine in 1966 in Kenya. […] Compounds were assayed in at least three separate, independent experiments and an 11-point dilution curve was used to determine the EC50 values. Bloodstream form trypanosomes were supported in HMI-9 medium containing 20% bovine serum and were incubated with test compounds for 69 h at 34°C in a humidified atmosphere containing 5% CO2. Thereafter, 10 μL of Resazurin dye (12.5 mg in 100 mL of phosphate-buffered saline, Sigma-Aldrich, Buchs, Switzerland) was added for an additional 3 h. Plates were read using a fluorescence plate reader (Spectramax, Gemini XS, Bucher Biotec, Basel, Switzerland) using an excitation wavelength of 536 nm and an emission wavelength of 588 nm.

The subject of data set [6] is L. major amastigote. In words: L. major intracellular amastigote luciferase assay in RAW 264.7 macrophages. The settings on record: Leishmania major, RAW264.7; intracellular amastigotes in RAW 264.7 macrophages, 96 h. Format: cell-based, Leishmania major. The gist of the method: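 Murine RAW 264.7 macrophages were infected overnight with luciferase-expressing L. major metacyclic promastigotes (MOI 1:10). Non-internalized parasites were washed off before 96 h compound exposure (0.5–10,000 ng/mL) at 37°C, 5% CO2.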

SMILES strings stand for the structures. Entries after “also recorded” stand apart in the source; their conditions may differ.

The hepatocyte CLint is the rate of metabolic loss divided by the concentration. Usually EC50 stands for the midpoint of the concentration-response curve. With `CN1CCN(c2ncc(-c3ccc4c(Nc5ccc(OCc6cccc(F)c6)c(Cl)c5)ccnc4c3)cn2)CC1` [Compound 14], the hepatocyte CLint in data set [1] was 24 µL/min/1e6 cells. Further, the concentration giving a half-maximal response (EC50) in data set [2] came out at 90 nM; in data set [3], 200 nM; in data set [5] it was 160 nM; in data set [6], 1500 nM. In data set [2] (selectivity index calculated relative to 3T3 cells), the “SI (T. cruzi)” value was 170. Moreover, the “Toxicity in infected mice” value in data set [4] (25 mg/kg i.p.) is given as “no evidence of toxicity”. Also, the “Mice showing 10-fold reduction in parasitemia” value in data set [4] (25 mg/kg i.p., n = 4) is 75%. Also, the “Mice with no detectable parasitemia” value in data set [4] (25 mg/kg i.p., n = 4) is recorded as “one had no detectable parasitemia”. This compound yielded a Reduction in parasitemia in data set [4] (25 mg/kg i.p., vs DMSO vehicle) of 10 fold.

For `CN1CCN(c2ncc(-c3ccc4c(Nc5cnccn5)ccnc4c3)cn2)CC1` [Compound 22], in data set [1], the hepatocyte CLint came out at 130 µL/min/1e6 cells. The EC50 in data set [2] was 6000 nM; in data set [3] it was 720 nM; in data set [5], 50 nM; in data set [6], 2500 nM. Besides, the “Parasitemia vs control group” value in data set [4] (p.o. once daily 60 mg/kg days 1-3, then 70 mg/kg, by day 5, vehicle 10% NMP 90% PEG) is listed as “no statistically significant difference; also recorded: failed to affect parasitemia”. Moreover, the “Toxicity in infected mice” value in data set [4] (p.o. once daily 60 mg/kg, first three days) is listed as “no signs of toxicity”.
